These results are taken from ChEMBL document CHEMBL1770140, “MMP-13 selective α-sulfone hydroxamates: a survey of P1' heterocyclic amide isosteres” (Bioorg Med Chem Lett, 2011).

pIC50, pKi: −log10 of the molar value.

One data set deals with Stromelysin-1 (Homo sapiens, UniProt P08254). Kind of data set: Inhibition of human MMP-3.
For another data set, the target named is T1, Interstitial collagenase (Homo sapiens, UniProt P03956).
T1 sequence (P03956 whole entry): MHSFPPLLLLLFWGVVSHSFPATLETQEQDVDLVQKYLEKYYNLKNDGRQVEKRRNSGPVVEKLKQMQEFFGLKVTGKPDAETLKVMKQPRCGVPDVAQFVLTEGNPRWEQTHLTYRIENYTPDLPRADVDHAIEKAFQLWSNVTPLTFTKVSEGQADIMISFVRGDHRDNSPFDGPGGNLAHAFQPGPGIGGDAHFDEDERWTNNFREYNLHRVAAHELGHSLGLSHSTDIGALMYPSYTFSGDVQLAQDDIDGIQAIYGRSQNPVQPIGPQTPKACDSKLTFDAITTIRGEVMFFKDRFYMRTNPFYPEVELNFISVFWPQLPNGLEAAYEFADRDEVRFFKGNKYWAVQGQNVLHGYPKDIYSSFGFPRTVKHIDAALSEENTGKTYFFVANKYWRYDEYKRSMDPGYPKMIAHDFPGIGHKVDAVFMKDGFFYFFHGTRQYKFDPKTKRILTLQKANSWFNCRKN
Kind of data set: Inhibition of human MMP-1.

The nature of data set [1]: Clearance in rat. Format: ADME, organism-based. The conditions noted are these: in vivo.
For a further data set, the target named is T2, Matrilysin (Homo sapiens, UniProt P09237).
T2 sequence (P09237 whole entry): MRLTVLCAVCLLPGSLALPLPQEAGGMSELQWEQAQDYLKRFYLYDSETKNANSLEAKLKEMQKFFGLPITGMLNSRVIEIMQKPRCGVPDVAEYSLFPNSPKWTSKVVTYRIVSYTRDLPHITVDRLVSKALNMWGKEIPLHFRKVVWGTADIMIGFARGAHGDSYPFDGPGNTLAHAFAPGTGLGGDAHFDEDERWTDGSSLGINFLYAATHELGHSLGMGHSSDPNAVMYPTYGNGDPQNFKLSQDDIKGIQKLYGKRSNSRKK
Kind of data set: Inhibition of human MMP-7.

Data set [2] deals with Matrix metalloproteinase-9 (Homo sapiens, UniProt P14780). Kind of data set: Inhibition of human MMP-9.
Matrix metalloproteinase-9, sequence (P14780 whole entry): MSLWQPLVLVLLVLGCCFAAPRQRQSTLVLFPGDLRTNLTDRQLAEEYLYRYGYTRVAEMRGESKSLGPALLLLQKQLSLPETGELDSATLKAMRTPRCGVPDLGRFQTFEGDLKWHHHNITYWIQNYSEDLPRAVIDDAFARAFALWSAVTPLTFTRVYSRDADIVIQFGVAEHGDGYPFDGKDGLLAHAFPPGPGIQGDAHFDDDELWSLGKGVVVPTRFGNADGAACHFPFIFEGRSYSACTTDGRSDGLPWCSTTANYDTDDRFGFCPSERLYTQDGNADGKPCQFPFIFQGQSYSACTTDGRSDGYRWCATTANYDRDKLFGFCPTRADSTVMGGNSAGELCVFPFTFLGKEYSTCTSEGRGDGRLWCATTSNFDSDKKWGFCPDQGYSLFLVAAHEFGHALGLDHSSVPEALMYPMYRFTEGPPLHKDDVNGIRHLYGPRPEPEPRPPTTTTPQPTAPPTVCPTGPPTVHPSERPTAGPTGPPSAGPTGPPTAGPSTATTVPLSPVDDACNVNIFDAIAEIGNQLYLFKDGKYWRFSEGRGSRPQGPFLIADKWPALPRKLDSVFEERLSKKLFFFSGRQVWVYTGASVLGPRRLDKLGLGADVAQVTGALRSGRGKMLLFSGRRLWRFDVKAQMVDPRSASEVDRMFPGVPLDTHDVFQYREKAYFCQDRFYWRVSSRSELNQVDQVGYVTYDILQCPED
The next data set concerns the target Collagenase 3 (Homo sapiens, UniProt P45452). Kind of data set: Inhibition of human MMP-13.
In data set [3] the target is 72 kDa type IV collagenase (Homo sapiens, UniProt P08253). Kind of data set: Inhibition of human MMP-2.
72 kDa type IV collagenase, sequence (P08253 whole entry): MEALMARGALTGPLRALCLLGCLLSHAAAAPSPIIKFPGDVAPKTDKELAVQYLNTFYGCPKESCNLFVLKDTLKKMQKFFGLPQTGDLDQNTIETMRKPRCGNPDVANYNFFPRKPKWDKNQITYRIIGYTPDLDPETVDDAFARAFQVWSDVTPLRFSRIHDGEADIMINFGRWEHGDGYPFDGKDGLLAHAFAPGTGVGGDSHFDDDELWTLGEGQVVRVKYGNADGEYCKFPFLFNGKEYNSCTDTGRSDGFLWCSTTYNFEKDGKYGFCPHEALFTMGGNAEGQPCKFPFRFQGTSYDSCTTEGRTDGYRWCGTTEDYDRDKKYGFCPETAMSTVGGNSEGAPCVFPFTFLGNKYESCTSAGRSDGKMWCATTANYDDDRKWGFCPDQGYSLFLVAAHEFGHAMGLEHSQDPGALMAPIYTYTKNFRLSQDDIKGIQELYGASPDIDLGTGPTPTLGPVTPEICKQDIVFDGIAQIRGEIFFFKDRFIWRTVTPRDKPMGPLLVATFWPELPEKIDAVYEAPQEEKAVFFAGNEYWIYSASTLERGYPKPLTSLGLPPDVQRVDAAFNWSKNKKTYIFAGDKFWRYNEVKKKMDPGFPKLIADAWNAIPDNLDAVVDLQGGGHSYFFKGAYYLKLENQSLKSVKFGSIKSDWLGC
The nature of data set [4]: Half life in rat. Format: ADME, organism-based. The following applies: in vivo.
Data set [5] deals with Matrix metalloproteinase-14 (Homo sapiens, UniProt P50281). Kind of data set: Inhibition of human MMP-14.
In a further data set the target is Neutrophil collagenase (Homo sapiens, UniProt P22894). Kind of data set: Inhibition of human MMP-8.
Neutrophil collagenase, sequence (P22894 whole entry): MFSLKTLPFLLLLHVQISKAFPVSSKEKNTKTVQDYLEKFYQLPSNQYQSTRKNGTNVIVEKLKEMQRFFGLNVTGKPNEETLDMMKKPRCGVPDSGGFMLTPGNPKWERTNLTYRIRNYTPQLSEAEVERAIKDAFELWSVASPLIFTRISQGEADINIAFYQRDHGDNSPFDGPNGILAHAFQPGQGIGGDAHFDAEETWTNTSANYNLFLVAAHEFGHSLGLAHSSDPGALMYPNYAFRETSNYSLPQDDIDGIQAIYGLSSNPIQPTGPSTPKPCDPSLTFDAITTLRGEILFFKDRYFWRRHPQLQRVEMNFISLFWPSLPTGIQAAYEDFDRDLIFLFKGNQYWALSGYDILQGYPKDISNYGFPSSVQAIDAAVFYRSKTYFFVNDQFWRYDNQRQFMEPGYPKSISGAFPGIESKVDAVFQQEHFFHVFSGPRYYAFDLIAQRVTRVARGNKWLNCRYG
Data set [6] in a line: Cmax in rat. It counts as ADME, organism-based. The conditions noted are these: in vivo.
A short description of data set [7]: Bioavailability in rat. Format: ADME, organism-based. The conditions noted are these: in vivo.

Stromelysin-1, sequence (P08254 whole entry): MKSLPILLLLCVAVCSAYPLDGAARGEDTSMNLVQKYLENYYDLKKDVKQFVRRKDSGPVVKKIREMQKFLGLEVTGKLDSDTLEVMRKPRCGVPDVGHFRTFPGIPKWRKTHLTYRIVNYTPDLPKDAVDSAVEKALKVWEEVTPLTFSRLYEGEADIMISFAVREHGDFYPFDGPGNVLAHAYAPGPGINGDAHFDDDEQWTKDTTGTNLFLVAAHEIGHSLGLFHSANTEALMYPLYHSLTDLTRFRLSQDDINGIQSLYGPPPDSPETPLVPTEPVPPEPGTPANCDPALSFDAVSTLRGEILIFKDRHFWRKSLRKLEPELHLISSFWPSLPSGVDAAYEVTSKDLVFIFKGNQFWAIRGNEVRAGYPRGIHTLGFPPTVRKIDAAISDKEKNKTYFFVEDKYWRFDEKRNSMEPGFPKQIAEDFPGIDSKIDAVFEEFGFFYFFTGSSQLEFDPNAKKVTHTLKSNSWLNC

On to `Cc1ccc(-c2nnn(CCCOc3ccc(S(=O)(=O)C4(C(=O)NO)CCOCC4)cc3)n2)nc1`, for which the pKi (in general, the negative decadic logarithm of the Ki, by convention in mol/L) at Stromelysin-1 was 7.36; at Interstitial collagenase it was less than 5.00; at Matrilysin, 5.52; in [2] it was 6.43; at Collagenase 3, 9.18; in data set [3], 6.96. Besides, the pKi in data set [5] is less than 5.00; at Neutrophil collagenase, 6.62. Moreover, the clearance (commonly the volume of plasma or blood freed of the substance per unit of time) in data set [1] was 46 mL/min/kg. Besides, the half-life (as a rule, how long it takes for the measured level to halve) in [4] was 2 h. For the same molecule, the Cmax (usually the highest concentration seen after dosing) in data set [6] was 3500 ng/mL. Further, in data set [7], the bioavailability (usually dose-corrected exposure relative to a reference, in per cent) was found to be 1.7%.
Regarding `CCN1CCC(C(=O)NO)(S(=O)(=O)c2ccc(OCCCc3nc(-c4ccc(OC(F)(F)F)cc4)no3)cc2)CC1`, the pKi on Stromelysin-1 was 7.43; at Matrilysin, less than 5.00; in [2] it was 6.43; on Collagenase 3, 8.70; in data set [3], 6.39; on Neutrophil collagenase it was 6.59. The molecule further came in with a clearance in [1] of 19 mL/min/kg. In data set [4], this molecule gave a half-life of 2.4 h. Besides, the concentration in data set [6] peaked (Cmax) at 2200 ng/mL. For the same molecule, in data set [7], the bioavailability was determined as 28%.
As for `COc1ccc(C(=O)NCCCOc2ccc(S(=O)(=O)C3(C(=O)NO)CCOCC3)cc2)cc1`, the pKi at Stromelysin-1 was 6.05; at Interstitial collagenase it was less than 5.00; in data set [2] it was less than 5.00; on Collagenase 3 it was 8.80; in data set [3] it was 6.26; in data set [5], less than 5.00. At Neutrophil collagenase, this molecule gave a negative logarithm of the Ki (pKi) of 6.05. In data set [4], the half-life was 0.59 h. The molecule further returned a peak concentration (Cmax) in data set [6] of 0.02 ng/mL.
With `COCCN1CCC(C(=O)NO)(S(=O)(=O)c2ccc(OCCCn3nnc(-c4ccc(OC(F)(F)F)cc4)n3)cc2)CC1`, the pKi is 8.06 at Stromelysin-1; less than 5.00 at Interstitial collagenase; 5.07 on Matrilysin; 9.89 on Collagenase 3; less than 5.00 in data set [5]; 5.10 on Neutrophil collagenase. The same molecule showed a half-life in [4] of 1.3 h. Besides, the maximum concentration (Cmax) in [6] worked out at 1400 ng/mL. In data set [7], this molecule had a bioavailability of 26%.
`COc1ccc(C(=O)N2CCN(c3ccc(S(=O)(=O)C4(C(=O)NO)CCOCC4)cc3)CC2)cc1`: the pIC50 – broadly, the IC50 on a negative log10 scale, so that one unit is a factor of ten – is 7.05 at Stromelysin-1; less than 5.00 against Matrilysin; 5.92 in data set [2]; 9.15 against Collagenase 3; 5.89 in data set [3]; 5.92 against Neutrophil collagenase. Further, the pKi (on Interstitial collagenase; in data set [5]) was less than 5.00 each time. The molecule also showed a half-life in [4] of 1.2 h. This molecule yielded a maximum concentration (Cmax) in data set [6] of 4200 ng/mL. The molecule further had a bioavailability in data set [7] of 14%.
With `O=C(NO)C1(S(=O)(=O)c2ccc(OCCCc3nc(-c4ccc(OC(F)(F)F)cc4)no3)cc2)CCOCC1`, the pKi on Stromelysin-1 is 7.51; at Matrilysin, less than 5.00; at Neutrophil collagenase, 6.74. For the same molecule, the clearance in [1] stood at 14 mL/min/kg. The same molecule gave a half-life in data set [4] of 1.4 h. In addition, the highest concentration (Cmax) in [6] stood at 240 ng/mL. Moreover, the bioavailability in data set [7] was found to be 22%.
Regarding `O=C(NO)C1(S(=O)(=O)c2ccc(OCCCn3cnc(-c4ccc(OC(F)(F)F)cc4)c3)cc2)CCOCC1`, the negative-log Ki (pKi) at Stromelysin-1 is 7.23; at Interstitial collagenase it was less than 5.00; at Matrilysin it was 5.22; in data set [2], 5.74; at Collagenase 3 it was 8.77; in data set [3] it was 6.28. The negative logarithm of the Ki (pKi) in [5] is less than 5.00; at Neutrophil collagenase, 7.13.
Turning to `Cc1ccc(-c2nnnn2CCCOc2ccc(S(=O)(=O)C3(C(=O)NO)CCOCC3)cc2)nc1`, the negative logarithm of the Ki (pKi) on Stromelysin-1 is 8.52; at Interstitial collagenase, less than 5.00; at Matrilysin, 6.01; in [2], 5.62; at Collagenase 3, 9.22; in data set [3], 6.40. Moreover, the results for the pKi (in data set [5]; at Neutrophil collagenase) were less than 5.00 and 6.60, respectively. The same molecule showed a clearance in data set [1] of 63 mL/min/kg. For the same molecule, the half-life in [4] was 4.8 h. Besides, in data set [6], the Cmax came out at 3000 ng/mL. Also, in data set [7], the bioavailability was 5%.
Take `O=C(NO)C1(S(=O)(=O)c2ccc(OCCCc3nnnn3-c3ccc(OC(F)(F)F)cc3)cc2)CCOCC1`: the negative logarithm of the Ki (pKi) on Stromelysin-1 is 8.00; at Interstitial collagenase it was less than 5.00; at Matrilysin, 5.15; in data set [2], 5.77; at Collagenase 3, 8.92; in [3], 6.37. In addition, the results for the negative-log Ki (pKi) (in data set [5]; at Neutrophil collagenase) were less than 5.00 and 7.14, respectively. The same molecule returned a clearance in data set [1] of 42 mL/min/kg. Also, the half-life in data set [4] was 4 h. This molecule gave a peak concentration (Cmax) in data set [6] of 3500 ng/mL. This molecule showed a bioavailability in [7] of 7.3%.
For the molecule `O=C(NO)C1(S(=O)(=O)c2ccc(OCCCn3nnc(-c4ccc(OC(F)(F)F)cc4)n3)cc2)CCOCC1`, the negative-log Ki (pKi) on Stromelysin-1 is 7.55; on Interstitial collagenase, less than 5.00; at Matrilysin, less than 5.00; in data set [2], 5.92; on Collagenase 3, 9.18; in data set [3] it was 6.39. Further, the pKi in data set [5] was less than 5.00; at Neutrophil collagenase it was 6.77. The clearance in data set [1] was determined as 12 mL/min/kg. This molecule had a half-life in [4] of 2.4 h. In data set [6], the peak level (Cmax) was 61 ng/mL. The molecule further registered a bioavailability in [7] of 32%.
As for `O=C(NO)C1(S(=O)(=O)c2ccc(OCCCn3cncc3-c3ccc(OC(F)(F)F)cc3)cc2)CCOCC1`, the pKi was 6.89 on Stromelysin-1; less than 5.00 at Interstitial collagenase; less than 5.00 on Matrilysin; less than 5.00 in data set [2]; 8.43 at Collagenase 3; 5.04 in data set [3]. The results for the pKi (in [5]; on Neutrophil collagenase) were less than 5.00 and 6.85, respectively.
In the case of `COc1ccc(-c2nnn(CCCOc3ccc(S(=O)(=O)C4(C(=O)NO)CCOCC4)cc3)n2)cc1`, the pIC50 was 7.41 at Stromelysin-1, 5.96 in data set [2] and 6.72 against Neutrophil collagenase. Further, the pKi at Interstitial collagenase was 5.25; in [5], less than 5.00.
For the molecule `COCCN1CCC(C(=O)NO)(S(=O)(=O)c2ccc(Oc3ccc(OC(F)(F)F)cc3)cc2)CC1`, the pKi on Interstitial collagenase was less than 5.00; at Matrilysin, 5.15. Besides, the pIC50 (on Collagenase 3; in data set [3]) was greater than 10.00 each time. Besides, the half-life in [4] was 2.9 h. The molecule also registered a Cmax in [6] of 21900 ng/mL. The molecule further had a bioavailability in [7] of 68%.
